Assay results as given in patent US9289429B2, “Compounds and methods for inhibiting phosphate transport” (Ardelyx, Inc., priority 2010, dated 2016).

Key:
[1] = target: T1, rat NaP2b (SLC34A2) (Rattus norvegicus, UniProt Q9JJ09); assay: NaP2b-mediated Pi transport (33P uptake) in transfected HEK293 cells, rat transporter; type: cell-based; settings: HEK293 cells transfected with rat NaP2b, 33P phosphate uptake, 100 uM KH2PO4; read-out: pIC50 range for rat Nap2b (converted)
T1 construct: host or cells: HEK293
T1 sequence (Q9JJ09 1-695): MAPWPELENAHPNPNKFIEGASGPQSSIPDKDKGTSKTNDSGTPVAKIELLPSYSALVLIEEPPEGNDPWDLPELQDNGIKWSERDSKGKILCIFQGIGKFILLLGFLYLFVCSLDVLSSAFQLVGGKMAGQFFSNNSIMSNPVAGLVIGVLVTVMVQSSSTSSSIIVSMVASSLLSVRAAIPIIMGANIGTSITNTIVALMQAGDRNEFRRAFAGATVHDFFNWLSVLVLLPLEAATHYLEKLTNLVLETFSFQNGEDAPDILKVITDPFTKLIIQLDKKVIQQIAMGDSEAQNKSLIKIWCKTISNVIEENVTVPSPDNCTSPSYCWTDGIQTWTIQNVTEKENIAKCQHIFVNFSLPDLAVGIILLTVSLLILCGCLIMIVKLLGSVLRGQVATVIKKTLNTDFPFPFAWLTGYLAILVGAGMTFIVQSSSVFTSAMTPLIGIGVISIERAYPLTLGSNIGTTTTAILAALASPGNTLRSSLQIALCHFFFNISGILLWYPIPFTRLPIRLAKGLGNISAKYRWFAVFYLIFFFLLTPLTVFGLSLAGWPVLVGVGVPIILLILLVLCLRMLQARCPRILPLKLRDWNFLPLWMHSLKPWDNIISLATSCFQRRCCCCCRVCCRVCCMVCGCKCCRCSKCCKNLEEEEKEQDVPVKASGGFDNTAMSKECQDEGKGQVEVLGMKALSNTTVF
Description: (§1) HEK293 cells were obtained from the American Type Culture collection and propagated per their instructions. Expression clones for rat and human NaP2b (SLC34A2) were obtained from Open Biosystems (Catalog numbers MRN1768-9510282, and MHS1010-99823026, respectively). The sequence of the human protein was mutated to insert a threonine after residue 37, and to introduce a N39D mutation.
(§2) The rate of phosphate (Pi) uptake into HEK293 cells was measured using a modification of the method described by Mohrmann et al. (Mohrmann, I., Mohrmann, M., Biber, J., and Murer, H. (1986) Am. J. Phys. 250(3 Pt 1):G323-30.) Transfected HEK293 cells were treated with a pharmacological agent to minimize endogenous PiT-mediated phosphate transport activity, such that the only remaining sodium-dependent phosphate transport activity is that which was bestowed by introduction of the NaP2b genes.
(§3) Cells were seeded into 96-well plates at 25,000 cells/well and cultured overnight. Lipofectamine 2000 (Invitrogen) was used to introduce the NaP2b cDNA, and the cells were allowed to approach confluence during a second overnight incubation. […] Cells were then overlayed with either choline uptake buffer or sodium uptake buffer (14 mM Tris, 137 mM sodium chloride, 5.4 mM KCl, 2.8 mM CaCl2, 1.2 mM MgSO4, 100 uM KH2PO4, PiT-silencing agent, 1 mg/mL Bovine Serum Albumin, pH 7.4) containing 6-9 uCi/mL ^33P orthophosphoric acid (Perkin Elmer) and test compound. Each compound was tested at twelve concentrations ranging from 0.1 nM to 30 uM. Assays were run in duplicate.
(§4) After incubation for 3-30 minutes at room temperature, assay mixtures were removed, and the cells were washed twice with ice cold stop solution (137 mM sodium chloride, 14 mM Tris, pH 7.4). Cells were lysed by addition of 20 μL 0.1% Tween 80 followed by 100 μL scintillation fluid, and counted using a TopCount (Perkin Elmer).
(§5) pIC50 (the negative log of the IC50) values of the test compounds were calculated using GraphPad Prism.

[2] = target: T2, NaPi2b (Rattus norvegicus, UniProt Q9JJ09); assay: Competition with phosphate: Pi transport assay repeated at 2.1 vs 0.1 mM phosphate; type: cell-based; settings: potency for inhibition of NaPi2b at 2.1 vs 0.1 mM phosphate
T2 construct: host or cells: HEK293
T2 sequence (Q9JJ09 1-695): T1 sequence (Q9JJ09 1-695)
Description: To ascertain if an inhibitor was competitive for binding with phosphate, the procedure was repeated, but raising the concentration of the substrate in the assay mixture from 0.1 to 2.1 mM phosphate.

[3] = target: T3, human NaP2b (SLC34A2) (Homo sapiens, UniProt O95436); assay: NaP2b-mediated Pi transport (33P uptake) in transfected HEK293 cells, human transporter; type: cell-based; settings: HEK293 cells transfected with human NaP2b (Thr inserted after residue 37, N39D), 33P phosphate uptake, 100 uM KH2PO4; read-out: pIC50 range for human Nap2b (converted)
T3 construct: host or cells: HEK293
T3 sequence (O95436 1-690): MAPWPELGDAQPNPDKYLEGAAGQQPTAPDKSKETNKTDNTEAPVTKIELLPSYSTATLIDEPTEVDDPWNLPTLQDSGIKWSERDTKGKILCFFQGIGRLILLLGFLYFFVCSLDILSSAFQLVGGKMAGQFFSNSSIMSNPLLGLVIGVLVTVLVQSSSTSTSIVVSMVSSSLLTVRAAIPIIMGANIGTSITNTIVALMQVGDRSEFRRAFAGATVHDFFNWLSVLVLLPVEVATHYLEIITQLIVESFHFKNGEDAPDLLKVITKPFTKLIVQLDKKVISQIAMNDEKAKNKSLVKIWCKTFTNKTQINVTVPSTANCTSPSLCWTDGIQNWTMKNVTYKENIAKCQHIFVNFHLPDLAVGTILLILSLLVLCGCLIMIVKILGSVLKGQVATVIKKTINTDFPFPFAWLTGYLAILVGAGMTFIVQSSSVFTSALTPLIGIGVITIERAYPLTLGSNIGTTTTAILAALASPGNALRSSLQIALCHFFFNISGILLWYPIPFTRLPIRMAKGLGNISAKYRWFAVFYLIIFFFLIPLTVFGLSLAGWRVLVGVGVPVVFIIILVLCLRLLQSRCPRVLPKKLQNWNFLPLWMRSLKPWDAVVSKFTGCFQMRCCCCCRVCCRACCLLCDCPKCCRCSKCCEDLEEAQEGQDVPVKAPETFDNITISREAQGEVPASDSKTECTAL
Description: as §1, §2, §3, §4, §5

[4] = Fecal recovery of orally administered compounds; type: in vivo; settings: rat, oral gavage, feces collected until 48 hr after dosing, same animals as Example 22
Description: Quantitative determination of test compound level in feces after oral gavage was performed using the same set of animals used to determine test compound concentration in plasma (Example 22). The animals were kept in metabolic cages and feces were collected from the time of dosing until 48 hr after dosing. Upon collection, feces was dried by lyophilization and ground to a visually homogenous powder. Duplicate samples of ground feces from each individual animal were weighed out and extracted using organic solvent. Extracted samples were then diluted into mobile phase and test compound levels were quantitatively determined by LC-MS/MS analysis as described in “Example 22” except that the standard curve was prepared in a feces matrix. Extraction conditions were not optimized for individual compounds, and thus may represent a minimal level of recovery.

[5] = Stability in simulated gastric and intestinal fluid; type: in vitro ADME; settings: incubation 6 hr, 1-20 μM
Description: Test compounds were incubated at 1-20 μM in simulated gastric fluid (SGF; standard USP solution with 3 mg/mL pepsin) or simulated intestinal fluid (SIF; standard USP solution with 3 mg/mL pancreatin) for 3 hr or 6 hr. HPLC-UV or HPLC-MS were used to determine test compound levels using peak area %. Results (Table 5) were reported as the percentage of test compound remaining after incubation in a given condition relative to test compound present at t=0 in the same condition.

Structure (SMILES)	IC50 [1] [µM]	also measured
Cc1ccc(-c2cnc(NC(=O)c3cc(N4CCCCC4)ccc3NC(=O)c3cccc(CSCCC(=O)O)c3)cn2)cc1C [Example 1, 3-((3-((2-((5-(3,4-Dimethylphenyl)pyrazin-2-yl)carbamoyl)-4-(piperidin-1-yl)phenyl)carbamoyl)benzyl)thio)propanoic acid]	1 to 7.94	–
O=C(O)c1cccc(SCc2cccc(C(=O)Nc3ccc(N4CCCCC4)cc3C(=O)Nc3cnc(-c4ccccc4)nc3)c2)c1 [Example 3, 3-((3-((2-((2-Phenylpyrimidin-5-yl)carbamoyl)-4-(piperidin-1-yl)phenyl)carbamoyl)benzyl)thio)benzoic acid]	1 to 7.94	–
Cc1ccc(-c2cnc(NC(=O)c3cc(N4CCCCC4)ccc3NC(=O)c3cccc(C(=O)NCCOCCO)c3)cn2)cc1C [Example 5, N1-(2-((5-(3,4-Dimethylphenyl)pyrazin-2-yl)carbamoyl)-4-(piperidin-1-yl)phenyl)-N3-(2-(2-hydroxyethoxy)ethyl)isophthalamide]	10 to 31.6	–
O=C(NCCOCCO)c1cccc(C(=O)Nc2ccc(N3CCCCC3)cc2C(=O)Nc2cnc(-c3cccc(C(F)(F)F)c3)cn2)c1 [Example 6, N1-(2-(2-Hydroxyethoxy)ethyl)-N3-(4-(piperidin-1-yl)-2-((5-(3-(trifluoromethyl)phenyl)pyrazin-2-yl)carbamoyl)phenyl)isophthalamide]	10 to 31.6	–
CCN(CC)CCN(C)Cc1cccc(C(=O)Nc2ccc(N3CCCCC3)cc2C(=O)Nc2ncc(-c3ccc(C)c(C)c3)cn2)c1 [Example 7, 2-(3-(((2-(Diethylamino)ethyl)(methyl)amino)methyl)benzamido)-N-(5-(3,4-dimethylphenyl)pyrimidin-2-yl)-5-(piperidin-1-yl)benzamide]	1 to 7.94	–
O=C(NCCOCCO)c1cccc(C(=O)Nc2ccc(N3CCCCC3)cc2C(=O)Nc2ncc(-c3cccc(C(F)(F)F)c3)cn2)c1 [Example 8]	10 to 31.6	–
CCN(CC)CCN(C)Cc1cccc(C(=O)Nc2ccc(N3CCCCC3)cc2C(=O)Nc2ncc(-c3cccc(C(F)(F)F)c3)cn2)c1 [Example 9, 2-(3-(((2-(Diethylamino)ethyl)(methyl)amino)methyl)benzamido)-5-(piperidin-1-yl)-N-(5-(3-(trifluoromethyl)phenyl)pyrimidin-2-yl)benzamide]	10 to 31.6	–
CN(CCN1CCOCC1)C(=O)c1cccc(C(=O)Nc2ccc(N3CCCCC3)cc2C(=O)Nc2cnc(-c3cccc(C(F)(F)F)c3)nc2)c1 [Example 10, N1-Methyl-N1-(2-morpholinoethyl)-N3-(4-(piperidin-1-yl)-2-((2-(3-(trifluoromethyl)phenyl)pyrimidin-5-yl)carbamoyl)phenyl)isophthalamide]	< 1	Competitive with respect to Pi? [2]: No; IC50 [3]: < 1 µM
CN(CCN1CCOCC1)C(=O)c1cccc(C(=O)Nc2ccc(N3CCCCC3)cc2C(=O)Nc2cnc(-c3ccccc3)nc2)c1 [Example 11, N1-Methyl-N1-(2-morpholinoethyl)-N3-(2-((2-phenylpyrimidin-5-yl)carbamoyl)-4-(piperidin-1-yl)phenyl)isophthalamide]	< 1	% recovered in feces [4]: 26%; Competitive with respect to Pi? [2]: No; IC50 [3]: < 1 µM
Cc1ccc(-c2cnc(NC(=O)c3cc(N4CCCCC4)ccc3NC(=O)c3cccc(CSCCC(=O)O)c3)nc2)cc1C [Example 13, 3-(3-(2-(5-(3,4-dimethylphenyl)pyrimidin-2-ylcarbamoyl)-4-(piperidin-1-yl)phenylcarbamoyl)benzylthio)propanoic acid]	1 to 7.94	–
O=C(O)CCSCc1cccc(C(=O)Nc2ccc(N3CCCCC3)cc2C(=O)Nc2ncc(-c3cccc(C(F)(F)F)c3)cn2)c1 [Example 14, 3-((3-((4-(Piperidin-1-yl)-2-((5-(3-(trifluoromethyl)phenyl)pyrimidin-2-yl)carbamoyl)phenyl)carbamoyl)benzyl)thio)propanoic acid]	10 to 31.6	–
CN(CCOCCOCCOCCC(=O)O)C(=O)c1cccc(C(=O)Nc2ccc(N3CCCCC3)cc2C(=O)Nc2cnc(-c3ccccc3)nc2)c1 [Example 15, 2-Methyl-1-oxo-1-(3-((2-((2-phenylpyrimidin-5-yl)carbamoyl)-4-(piperidin-1-yl)phenyl)carbamoyl)phenyl)-5,8,11-trioxa-2-azatetradecan-14-oic acid]	1 to 7.94	% remaining, SGF ([5]; simulated gastric fluid with 3 mg/mL pepsin): 97%; % remaining, SIF ([5]; simulated intestinal fluid with 3 mg/mL pancreatin): 98%
Cc1ccc(-c2cnc(NC(=O)c3cc(N4CCCCC4)ccc3NC(=O)c3cccc(C(=O)NCCOCCO)c3)nc2)cc1C [Example 16, N1-(2-((5-(3,4-Dimethylphenyl)pyrimidin-2-yl)carbamoyl)-4-(piperidin-1-yl)phenyl)-N3-(2-(2-hydroxyethoxy)ethyl)isophthalamide]	10 to 31.6	–
O=C(O)CCOCCOCCOCCNC(=O)Cc1cccc(SCc2cccc(C(=O)Nc3ccc(N4CCCCC4)cc3C(=O)Nc3ncc(-c4ccccc4)cn3)c2)c1 [Example 17, 2-Oxo-1-(3-((3-((2-((5-phenylpyrimidin-2-yl)carbamoyl)-4-(piperidin-1-yl)phenyl)carbamoyl)benzyl)thio)phenyl)-6,9,12-trioxa-3-azapentadecan-15-oic acid]	1 to 7.94	IC50 [3]: 1 to 7.94 µM
O=C(O)P(=O)(O)O [PFA, reference compound]	–	Competitive with respect to Pi? [2]: Yes
